“Also recorded” adds a separate entry of the source.
What was measured:
[1] = system: superoxide dismutase (SOD1); assay: SOD1 expression in CYP-CIPN rat peripheral (sciatic) nerves, Western immunoblotting; type: in vivo; settings: 8-AG 5 mg/kg/day in drinking water from 2 weeks prior to CYP
Experimental: (§1) Animals. This study employed female Harlan Sprague Dawley (HSD) rats (3-4 mo; Envigo, Indianapolis, IN) and were divided into the following groups: 1) Control, 2) Cyclophosphamide (CYP, 75 mg/kg i.p. in saline vehicle; administered on days 0, 3 and 6); 3) 8-aminoguanine (8-AG; 5 mg/kg/day in drinking water; beginning 2 weeks prior to CYP and continuing until sacrifice (day 8)). The dose of 8-AG is based on our preliminary and published experiments. […] The investigation conforms to the Guide for the Care and Use of Laboratory Animals published by the US National Institutes of Health (NIH Publication No. 85-23, revised 1996). […]
(§2) Western immunoblotting: Following the testing paradigms, rats were deeply anesthetized and tissues (e.g., epidermis, peripheral sciatic nerves, spinal cord segments (L3-L5) and dorsal root ganglia (L3-L5) were removed, and a portion of each preparation was homogenized using Lysing Matrix D in a FASTPREP® 24 instrument (MP Biomedicals, Solon, OH) in HBSS [5 mM KCl, 0.3 mM KH2PO4, 138 mM NaCl, 4 mM NaHO3, 0.3 mM Na2HCO3, 0.3 mM Na2HPO4, 5.6 mM glucose and 10 mM Hepes, pH 7.4 containing complete protease inhibitor cocktail (1 tablet/10 ml, Roche, Indianapolis, IN)] and phosphatase inhibitor cocktail (Sigma, 1:100). […] The protein concentrations of the supernatants were determined using the Pierce BCA protein assay (Thermo Scientific, Rockford, IL). […]

CYP—CIPN rats = assay: Von Frey sensory testing in CYP-CIPN rats; type: in vivo, rat; settings: hindpaw, 8-AG 5 mg/kg/day in drinking water
Experimental: Animals. This study employed female Harlan Sprague Dawley (HSD) rats (3-4 mo; Envigo, Indianapolis, IN) and were divided into the following groups: 1) Control, 2) Cyclophosphamide (CYP, 75 mg/kg i.p. in saline vehicle; administered on days 0, 3 and 6); 3) 8-aminoguanine (8-AG; 5 mg/kg/day in drinking water; beginning 2 weeks prior to CYP and continuing until sacrifice (day 8)). The dose of 8-AG is based on our preliminary and published experiments. […] The investigation conforms to the Guide for the Care and Use of Laboratory Animals published by the US National Institutes of Health (NIH Publication No. 85-23, revised 1996). In addition, all tissues (dorsal root ganglion, spinal cord, peripheral nerves and hindpaw epidermis) were removed from isoflurane anesthetized rats and the tissue was used for various experimental approaches as described below. At the end of tissue removal, animals were sacrificed by thoracotomy.
(§3) Control, CYP and 8-AG-treated CYP rats were placed in an elevated chamber on a wire mesh floor and after acclimatization, calibrated von Frey microfilaments were applied to determine paw withdrawal threshold (PWT, in grams). Briefly, microfilaments (Stoelting Corp, USA) are applied with different forces perpendicularly to the plantar surface of both ipsilateral and contralateral hindpaw by increasing and decreasing stimulus intensity. […]

PGP 9.5 = PGP 9.5 expression in CYP-CIPN rat hindpaw epidermis, Western immunoblotting; type: in vivo; settings: 8-AG 5 mg/kg/day in drinking water
Experimental: as §1, §2

PAC-CIPN rats = assay: Von Frey sensory testing in PAC-CIPN rats; type: in vivo, rat; settings: hindpaw footpad, paclitaxel 2 mg/kg i.p., 8-AG 5 mg/kg/day in drinking water
Experimental: Animals: This study employed female Harlan Sprague Dawley (HSD) rats (3-4 mo; Envigo, Indianapolis, IN) and were divided into the following groups: 1) Control, 2) Cyclophosphamide (CYP, 75 mg/kg i.p. in saline vehicle; administered on days 0, 3 and 6 until sacrifice on day 8); 4) Paclitaxel (2 mg/kg i.p., 2 mg/kg i.p. in saline from a stock solution of 50/50 CremophorEL/ethanol); administered on days 0, 2, 4 and 6 until sacrifice on day 8; 4) 8-aminoguanine (8-AG; 5 mg/kg/day in drinking water; beginning 2 weeks prior to either CYP or PAC and continuing until sacrifice (day 8)). The dose of 8-AG was based on the experiments described above. […] All tissues (spinal cord and hindpaw epidermis) were removed from isoflurane anesthetized rats and the tissue was used for various experimental approaches as described below. At the end of tissue removal, animals were sacrificed by thoracotomy.
as §3, with “Von Frey sensory testing, Control,” for “Control,”, “PAC” for “CYP”, “were” for “are”

For `Nc1nc2[nH]c(N)nc2c(=O)[nH]1` [8-AG, 8-Aminoguanine], the “effect on CYP-induced decrease in SOD1 expression” value [1] was “normalized; also recorded: prevented”, the “effect on CYP-induced increase in sensitivity to mechanical stimuli (paw withdrawal threshold)” value (CYP—CIPN rats) was “restored to control values; also recorded: normalizes; also recorded: normalized to control conditions” and the “effect on CYP-induced decrease in PGP 9.5 expression” value (PGP 9.5) was “restored to control values; also recorded: normalized”. The “effect on PAC-induced increase in sensitivity to mechanical stimuli (paw withdrawal threshold)” value (PAC-CIPN rats) was “restored to control values; also recorded: normalized”.
